# Data: US6878722B2, “Substituted cycloalkyl P1′ hepatitis C virus inhibitors” (Bristol-Myers Squibb Company, priority 2002, dated 2005)
# How the values were obtained:
# [1] = test system: HCV replicon in Huh7 cells; assay: HCV replicon cell-based assay (FRET); settings: Hepatitis C virus, Huh-7; HCV replicon; read-out: EC50 range
# Procedure, shortened: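 Huh7 cells stably carrying a genotype 1b HCV replicon (IRES-neo-EMCV-IRES-NS3-NS5B) were treated with compound for 4 days at 37 °C in 0.5% DMSO final. Lysates containing 10 μM FRET peptide RET S1 were read kinetically at 340/490 nm to give NS3 protease activity, from which EC50 was derived.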
# [2] = target: T1, HCV NS3/4A protease complex (BMS strain, genotype 1a) (Hepatitis C virus genotype 1a, UniProt P27958, C1454S); assay: Recombinant HCV NS3/4A protease complex FRET peptide assay, BMS strain; type: biochemical; settings: IC50 range, NS3/4A BMS Strain
# T1 construct: DNA encoding the recombinant HCV NS3/4A protease complex (amino acids 1027 to 1711) for these strains; inferred from the pET21b vector and Ni-NTA purification; made in house; host or cells: Escherichia coli BL21 (DE3), pET21b
# T1 sequence (P27958 1658-1714, looked up, stated change not applied): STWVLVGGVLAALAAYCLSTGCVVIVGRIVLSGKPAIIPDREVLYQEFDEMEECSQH
# T1 sequence (P27958 1027-1657, looked up, stated change not applied): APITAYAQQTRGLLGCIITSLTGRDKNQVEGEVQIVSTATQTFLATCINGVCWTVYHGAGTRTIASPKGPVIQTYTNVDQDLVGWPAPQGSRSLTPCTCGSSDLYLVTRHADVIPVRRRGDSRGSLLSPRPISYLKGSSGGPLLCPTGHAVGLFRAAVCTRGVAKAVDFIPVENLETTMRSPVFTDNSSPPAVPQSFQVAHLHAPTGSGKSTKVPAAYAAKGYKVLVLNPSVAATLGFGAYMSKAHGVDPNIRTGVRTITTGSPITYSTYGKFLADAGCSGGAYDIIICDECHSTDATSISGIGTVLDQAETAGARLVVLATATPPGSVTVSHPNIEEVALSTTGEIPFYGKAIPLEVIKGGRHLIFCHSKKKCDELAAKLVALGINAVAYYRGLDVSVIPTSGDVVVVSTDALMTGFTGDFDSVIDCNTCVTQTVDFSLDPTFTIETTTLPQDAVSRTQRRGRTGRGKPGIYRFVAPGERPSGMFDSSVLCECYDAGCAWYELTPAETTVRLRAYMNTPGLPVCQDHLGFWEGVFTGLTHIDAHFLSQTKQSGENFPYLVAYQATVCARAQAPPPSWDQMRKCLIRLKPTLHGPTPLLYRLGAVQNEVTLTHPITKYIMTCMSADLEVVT
# Procedure, shortened: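 Recombinant NS3/4A complex (aa 1027–1711) with C-terminal three-lysine tail, C1711G and C1454S, expressed in E. coli BL21(DE3) and purified by Ni-NTA then Superdex-S200. Inhibition of the complex from each strain measured in vitro by FRET peptide cleavage.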
Structure (SMILES),EC50 [1],IC50 [2]
"C=C[C@@H]1C[C@]1(NC(=O)[C@@H]1C[C@@H](Oc2cc(-c3ccccc3)nc3cc(OC)ccc23)CN1C(=O)[C@@H](NC(=O)OC1CCOCC1)C(C)(C)C)C(=O)NS(=O)(=O)C1(Cc2ccccc2)CC1 [Compound 56, {1-[2-[1-(1-Benzyl-cyclopropanesulfonylaminocarbonyl)-2-vinyl-cyclopropylcarbamoyl]-4-(7-methoxy-2-phenyl-quinolin-4-yloxy)-pyrrolidine-1-carbonyl]-2,2-dimethyl-propyl}-carbamic acid tetrahydro-pyran-4-yl Ester]",50 to 500 nM,< 50 nM
"C=C[C@@H]1C[C@]1(NC(=O)[C@@H]1C[C@@H](Oc2cc(-c3ccccc3)nc3cc(OC)ccc23)CN1C(=O)[C@@H](NC(=O)O[C@H]1CCOC1)C(C)(C)C)C(=O)NS(=O)(=O)C1(Cc2ccccc2)CC1 [Compound 57, {1-[2-[1-(1-Benzyl-cyclopropanesulfonylaminocarbonyl)-2-vinyl-cyclopropylcarbamoyl]-4-(7-methoxy-2-phenyl-quinolin-4-yloxy)-pyrrolidine-1-carbonyl]-2,2-dimethyl-propyl}-carbamic acid tetrahydro-furan-3-yl ester]",50 to 500 nM,< 50 nM
"C=C[C@@H]1C[C@]1(NC(=O)[C@@H]1C[C@@H](Oc2cc(-c3ccccc3)nc3cc(OC)ccc23)CN1C(=O)[C@@H](NC(=O)CC1CC1)C(C)(C)C)C(=O)NS(=O)(=O)C1(Cc2ccccc2)CC1 [Compound 58, 1-[2-(2-Cyclopropyl-acetylamino)-3,3-dimethyl-butyryl]-4-(7-methoxy-2-phenyl-quinolin-4-yloxy)-pyrrolidine-2-carboxylic acid [1-(1-benzyl-cyclopropanesulfonylaminocarbonyl)-2-vinyl-cyclopropyl]-amide]",50 to 500 nM,< 50 nM
"C=C[C@@H]1C[C@]1(NC(=O)[C@@H]1C[C@@H](Oc2cc(-c3ccccc3)nc3cc(OC)ccc23)CN1C(=O)[C@@H](NC(=O)CC1CCOCC1)C(C)(C)C)C(=O)NS(=O)(=O)C1(Cc2ccccc2)CC1 [Compound 59, 1-[3,3-Dimethyl-2-(2-tetrahydro-pyran-4-yl-acetylamino)-butyryl]-4-(7-methoxy-2-phenyl-quinolin-4-yloxy)-pyrrolidine-2-carboxylic acid [1-(1-benzyl-cyclopropanesulfonylaminocarbonyl)-2-vinyl-cyclopropyl]-amide]",50 to 500 nM,< 50 nM
"C=C[C@@H]1C[C@]1(NC(=O)[C@@H]1C[C@@H](Oc2cc(-c3ccccc3)nc3cc(OC)ccc23)CN1C(=O)[C@@H](NC(=O)C1CCOCC1)C(C)(C)C)C(=O)NS(=O)(=O)C1(Cc2ccccc2)CC1 [Compound 60, 1-{3,3-Dimethyl-2-[(tetrahydro-pyran-4-carbonyl)-amino]-butyryl}-4-(7-methoxy-2-phenyl-quinolin-4-yloxy)-pyrrolidine-2-carboxylic acid [1-(1-benzyl-cyclopropanesulfonylaminocarbonyl)-2-vinyl-cyclopropyl]-amide]",500 to 5000 nM,< 50 nM
"C=C[C@@H]1C[C@]1(NC(=O)[C@@H]1C[C@@H](Oc2cc(-c3ccccc3)nc3cc(OC)ccc23)CN1C(=O)[C@@H](NC(=O)NCC)C(C)(C)C)C(=O)NS(=O)(=O)C1(Cc2ccccc2)CC1 [Compound 61, 1-[2-(3-Ethyl-ureido)-3,3-dimethyl-butyryl]-4-(7-methoxy-2-phenyl-quinolin-4-yloxy)-pyrrolidine-2-carboxylic acid [1-(1-benzyl-cyclopropanesulfonylaminocarbonyl)-2-vinyl-cyclopropyl]-amide]",50 to 500 nM,< 50 nM
"C=C[C@@H]1C[C@]1(NC(=O)[C@@H]1C[C@@H](Oc2cc(-c3ccccc3)nc3cc(OC)ccc23)CN1C(=O)[C@@H](NC(=O)NC(C)(C)C)C(C)(C)C)C(=O)NS(=O)(=O)C1(Cc2ccccc2)CC1 [Compound 62, 1-[2-(3-tert-Butyl-ureido)-3,3-dimethyl-butyryl]-4-(7-methoxy-2-phenyl-quinolin-4-yloxy)-pyrrolidine-2-carboxylic acid [1-(1-benzylcyclopropanesulfonylaminocarbonyl)-2-vinyl-cyclopropyl]-amide]",50 to 500 nM,< 50 nM
